Reference: ChEMBL document CHEMBL4699569, “Rapid discovery of a selective butyrylcholinesterase inhibitor using structure-based virtual screening” (Bioorg Med Chem Lett, 2020)

Assays:
Cholinesterase [1] = molecular target: T1, Cholinesterase (Equus caballus, UniProt P81908); assay: Inhibition of equine serum BuChE; type: cell-free
Acetylcholinesterase = Acetylcholinesterase (Electrophorus electricus, UniProt O42275); assay: Inhibition of electric eel AChE at 100 uM
[2] = molecular target: Acetylcholinesterase (Homo sapiens) (UniProt P22303); assay: Inhibition of human recombinant AChE at 200 uM
Chain of Acetylcholinesterase (Homo sapiens) (P22303 whole entry): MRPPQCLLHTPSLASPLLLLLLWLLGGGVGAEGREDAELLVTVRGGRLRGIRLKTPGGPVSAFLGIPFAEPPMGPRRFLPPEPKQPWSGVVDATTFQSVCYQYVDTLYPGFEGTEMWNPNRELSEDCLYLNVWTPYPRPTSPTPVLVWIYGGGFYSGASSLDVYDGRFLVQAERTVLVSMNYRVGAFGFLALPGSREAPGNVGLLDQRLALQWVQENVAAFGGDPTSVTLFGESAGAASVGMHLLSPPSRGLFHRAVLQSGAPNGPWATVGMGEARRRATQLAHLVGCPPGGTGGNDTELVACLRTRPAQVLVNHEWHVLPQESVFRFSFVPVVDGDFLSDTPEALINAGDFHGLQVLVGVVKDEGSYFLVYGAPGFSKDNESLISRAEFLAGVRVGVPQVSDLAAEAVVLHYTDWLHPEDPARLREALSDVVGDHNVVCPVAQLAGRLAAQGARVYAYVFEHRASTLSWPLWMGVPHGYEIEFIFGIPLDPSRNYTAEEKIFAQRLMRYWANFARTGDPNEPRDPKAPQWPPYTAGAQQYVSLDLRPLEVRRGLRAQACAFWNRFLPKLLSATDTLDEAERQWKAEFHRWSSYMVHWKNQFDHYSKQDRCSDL

Cholinesterase [3] = molecular target: T1, Cholinesterase; assay: Mixed inhibition of equine serum BChE using butyrylthiocholine iodide as substrate; type: cell-free
Cholinesterase [4] = molecular target: Cholinesterase (Homo sapiens, UniProt P06276); assay: Inhibition of human BuChE at 10 uM
Chain of Cholinesterase (Homo sapiens, UniProt P06276) (P06276 whole entry): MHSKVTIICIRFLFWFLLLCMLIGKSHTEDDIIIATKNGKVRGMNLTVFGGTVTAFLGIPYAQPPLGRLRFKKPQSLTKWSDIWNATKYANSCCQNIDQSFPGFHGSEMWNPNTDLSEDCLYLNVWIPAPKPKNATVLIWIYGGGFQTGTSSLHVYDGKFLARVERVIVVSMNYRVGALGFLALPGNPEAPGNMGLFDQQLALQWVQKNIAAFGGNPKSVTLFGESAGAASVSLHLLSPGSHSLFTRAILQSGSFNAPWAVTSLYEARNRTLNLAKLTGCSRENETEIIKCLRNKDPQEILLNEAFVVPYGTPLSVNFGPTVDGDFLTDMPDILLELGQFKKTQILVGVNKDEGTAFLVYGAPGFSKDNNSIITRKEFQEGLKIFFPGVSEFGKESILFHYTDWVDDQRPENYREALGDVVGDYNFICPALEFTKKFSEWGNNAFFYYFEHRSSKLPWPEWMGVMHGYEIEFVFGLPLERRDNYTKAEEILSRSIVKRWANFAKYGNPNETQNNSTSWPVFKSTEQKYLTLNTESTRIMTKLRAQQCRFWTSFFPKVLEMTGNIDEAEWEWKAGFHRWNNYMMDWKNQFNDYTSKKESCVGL

[5] = Permeability of compound by PAMPA-BBB assay; type: ADME; conditions: read-out: permeability

T1 sequence (P81908 whole entry): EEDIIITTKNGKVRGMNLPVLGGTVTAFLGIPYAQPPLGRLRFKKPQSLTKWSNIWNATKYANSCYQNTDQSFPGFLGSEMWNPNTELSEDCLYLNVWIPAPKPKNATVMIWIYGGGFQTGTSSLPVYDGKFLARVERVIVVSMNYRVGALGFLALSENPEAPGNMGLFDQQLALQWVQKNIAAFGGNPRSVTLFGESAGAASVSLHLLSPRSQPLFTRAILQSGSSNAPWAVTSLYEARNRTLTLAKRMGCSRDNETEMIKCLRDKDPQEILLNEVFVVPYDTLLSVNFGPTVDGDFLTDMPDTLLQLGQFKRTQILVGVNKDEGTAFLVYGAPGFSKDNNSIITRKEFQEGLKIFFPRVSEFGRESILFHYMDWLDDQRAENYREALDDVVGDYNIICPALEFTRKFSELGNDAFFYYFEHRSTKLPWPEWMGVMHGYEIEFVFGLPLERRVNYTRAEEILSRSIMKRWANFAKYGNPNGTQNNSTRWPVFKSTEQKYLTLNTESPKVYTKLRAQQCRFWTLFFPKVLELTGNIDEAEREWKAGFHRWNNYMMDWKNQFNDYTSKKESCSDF
Chain of Acetylcholinesterase (O42275 whole entry): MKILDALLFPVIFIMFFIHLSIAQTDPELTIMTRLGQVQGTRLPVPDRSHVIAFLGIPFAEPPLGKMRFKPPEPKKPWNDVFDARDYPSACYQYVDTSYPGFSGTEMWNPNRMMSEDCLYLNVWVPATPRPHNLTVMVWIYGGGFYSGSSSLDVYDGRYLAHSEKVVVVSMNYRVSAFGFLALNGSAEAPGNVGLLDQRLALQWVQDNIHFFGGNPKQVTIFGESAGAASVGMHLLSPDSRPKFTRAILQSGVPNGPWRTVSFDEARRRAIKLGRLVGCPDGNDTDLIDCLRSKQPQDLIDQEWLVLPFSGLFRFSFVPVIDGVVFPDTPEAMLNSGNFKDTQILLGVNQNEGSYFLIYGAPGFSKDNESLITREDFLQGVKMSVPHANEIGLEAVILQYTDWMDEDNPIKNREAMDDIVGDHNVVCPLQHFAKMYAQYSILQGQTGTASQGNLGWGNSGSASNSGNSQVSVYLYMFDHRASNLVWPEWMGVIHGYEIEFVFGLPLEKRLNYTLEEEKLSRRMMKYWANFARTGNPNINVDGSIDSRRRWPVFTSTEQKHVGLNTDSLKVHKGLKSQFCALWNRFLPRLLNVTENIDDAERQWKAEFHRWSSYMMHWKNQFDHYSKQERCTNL

SMILES	IC50 (Cholinesterase [1]) [µM]	IC50 (Acetylcholinesterase)	inhibition [2] [%]	Ki (Cholinesterase [3]) [µM]	IC50 (Cholinesterase [4]) [µM]	Papp [5] [×10⁻⁶ cm/s]
COc1ccccc1C1CCN(Cc2c(C)[nH]c3ccccc23)CC1	12.3	Not Active				
COc1ccc(-c2cc(C(=O)N3CCN(Cc4ccccc4)CC3)c3ccccc3n2)cc1	3.3	Not Active	8	5.2	2.4	1.28
